In patent publication US6653307B2, “1-aryl-4-oxo-1,4-dihydro-3-quinolinecarboxamides as antiviral agents” (Pharmacia & Upjohn Company, priority 2000, dated 2003):

Columns and labels:
[1] = target: HSV polymerase (Human herpesvirus 1, UniProt P04293); test: HSV polymerase assay (Table 1); format: biochemical
Procedure: [Worded in the source for another target; this target is reported under the same test.] (§1) The HCMV polymerase assay is performed using a scintillation proximity assay (SPA) as described in several references, such as N.D. Cook, et al., Pharmaceutical Manufacturing International, pages 49-53 (1992); K. Takeuchi, Laboratory Practice, September issue (1992); U.S. Pat. No. 4,568,649 (1986); which are incorporated by reference herein. Reactions are performed in 96-well plates. The assay is conducted in 100 μl volume with 5.4 mM HEPES (pH 7.5), 11.7 mM KCl, 4.5 mM MgCl2, 0.36 mg/ml BSA, and 90 nM ^3H-dTTP. Assays are run with and without CHAPS, (3-[(3-cholamidopropyl)-dimethylammonio]-1-propane-sulfonate) at a final concentration of 2 mM. HCMV polymerase is diluted in enzyme dilution buffer containing 50% glycerol, 250 mM NaCl, 10 mM HEPES (pH 7.5), 100 μg/ml BSA, and 0.01% sodium azide. The HCMV polymerase, which is expressed in recombinant baculovirus-infected SF-9 cells and purified according to literature procedures, is added at 10% (or 10 μl) of the final reaction volume, i.e., […]. Compounds are diluted in 50% DMSO and 10 μl are added to each well. Control wells contain an equivalent concentration of DMSO. Unless noted otherwise, reactions are initiated via the addition of 6 nM biotinylated poly(dA)-oligo(dT) template/primer to reaction mixtures containing the enzyme, substrate, and compounds of interest. Plates are incubated in a 25 C or 37 C H2O bath and terminated via the addition of 40 μl/reaction of 0.5 M EDTA (pH 8) per well. Reactions are terminated within the time-frame during which substrate incorporation is linear and varied depending upon the enzyme and conditions used, i.e., 30 min. for HCMV polymerase. Ten μl of streptavidin-SPA beads (20 mg/ml in PBS/10% glycerol) are added following termination of the reaction. Plates are incubated 10 min. at 37 C, then equilibrated to room temperature, and counted on a Packard Topcount. Linear regressions are performed and IC50's are calculated using computer software. A modified version of the above HCMV polymerase assay is performed as described above, but with the following changes: Compounds are diluted in 100% DMSO until final dilution into assay buffer. In the previous assay, compounds are diluted in 50% DMSO. 4.5 mM dithiotherotol (DTT) is added to the polymerase buffer.

[2] = target: T1, HCMV polymerase (Human cytomegalovirus, UniProt P08546); test: HCMV polymerase scintillation proximity assay (SPA); format: biochemical; details: 3H-dTTP incorporation
T1 construct: made in house; host or cells: recombinant baculovirus-infected SF-9 cells
Procedure: as §1

[3] = target: VZV polymerase (Varicella-zoster virus, UniProt P09252); test: VZV polymerase assay (Table 1); format: biochemical
Procedure: [Worded in the source for another target; this target is reported under the same test.] as §1

Sequence of HSV polymerase (P04293 whole entry): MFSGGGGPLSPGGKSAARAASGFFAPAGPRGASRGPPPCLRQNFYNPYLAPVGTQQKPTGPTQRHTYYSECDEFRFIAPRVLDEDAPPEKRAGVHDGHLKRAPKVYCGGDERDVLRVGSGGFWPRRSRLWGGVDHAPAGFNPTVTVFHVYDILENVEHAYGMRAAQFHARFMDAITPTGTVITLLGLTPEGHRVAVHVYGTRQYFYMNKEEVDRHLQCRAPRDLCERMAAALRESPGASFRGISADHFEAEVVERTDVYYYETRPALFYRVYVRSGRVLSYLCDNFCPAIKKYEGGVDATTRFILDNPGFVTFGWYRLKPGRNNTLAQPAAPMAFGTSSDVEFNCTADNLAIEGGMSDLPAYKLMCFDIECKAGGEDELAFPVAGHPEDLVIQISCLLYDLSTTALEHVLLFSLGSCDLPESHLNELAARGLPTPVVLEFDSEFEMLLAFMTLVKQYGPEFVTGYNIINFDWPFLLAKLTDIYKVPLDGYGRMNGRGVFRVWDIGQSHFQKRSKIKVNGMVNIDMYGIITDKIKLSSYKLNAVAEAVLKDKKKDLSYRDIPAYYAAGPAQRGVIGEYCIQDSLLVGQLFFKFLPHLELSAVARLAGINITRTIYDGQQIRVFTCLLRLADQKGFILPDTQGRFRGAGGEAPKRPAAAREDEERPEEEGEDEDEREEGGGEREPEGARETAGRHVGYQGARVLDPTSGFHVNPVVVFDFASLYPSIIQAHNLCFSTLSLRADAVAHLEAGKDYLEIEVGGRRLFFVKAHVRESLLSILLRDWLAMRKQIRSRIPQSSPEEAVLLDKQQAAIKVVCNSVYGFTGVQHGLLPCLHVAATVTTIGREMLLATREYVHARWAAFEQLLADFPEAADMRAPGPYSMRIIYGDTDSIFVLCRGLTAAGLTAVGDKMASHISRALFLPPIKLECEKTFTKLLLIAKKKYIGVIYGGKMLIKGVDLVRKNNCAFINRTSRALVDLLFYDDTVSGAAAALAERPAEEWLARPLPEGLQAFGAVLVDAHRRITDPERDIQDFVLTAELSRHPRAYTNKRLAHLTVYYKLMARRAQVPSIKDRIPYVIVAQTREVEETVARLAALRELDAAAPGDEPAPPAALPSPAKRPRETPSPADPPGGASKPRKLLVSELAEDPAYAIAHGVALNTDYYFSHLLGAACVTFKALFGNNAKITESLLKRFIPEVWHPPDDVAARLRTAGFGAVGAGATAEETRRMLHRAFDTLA
Sequence of VZV polymerase (P09252 whole entry): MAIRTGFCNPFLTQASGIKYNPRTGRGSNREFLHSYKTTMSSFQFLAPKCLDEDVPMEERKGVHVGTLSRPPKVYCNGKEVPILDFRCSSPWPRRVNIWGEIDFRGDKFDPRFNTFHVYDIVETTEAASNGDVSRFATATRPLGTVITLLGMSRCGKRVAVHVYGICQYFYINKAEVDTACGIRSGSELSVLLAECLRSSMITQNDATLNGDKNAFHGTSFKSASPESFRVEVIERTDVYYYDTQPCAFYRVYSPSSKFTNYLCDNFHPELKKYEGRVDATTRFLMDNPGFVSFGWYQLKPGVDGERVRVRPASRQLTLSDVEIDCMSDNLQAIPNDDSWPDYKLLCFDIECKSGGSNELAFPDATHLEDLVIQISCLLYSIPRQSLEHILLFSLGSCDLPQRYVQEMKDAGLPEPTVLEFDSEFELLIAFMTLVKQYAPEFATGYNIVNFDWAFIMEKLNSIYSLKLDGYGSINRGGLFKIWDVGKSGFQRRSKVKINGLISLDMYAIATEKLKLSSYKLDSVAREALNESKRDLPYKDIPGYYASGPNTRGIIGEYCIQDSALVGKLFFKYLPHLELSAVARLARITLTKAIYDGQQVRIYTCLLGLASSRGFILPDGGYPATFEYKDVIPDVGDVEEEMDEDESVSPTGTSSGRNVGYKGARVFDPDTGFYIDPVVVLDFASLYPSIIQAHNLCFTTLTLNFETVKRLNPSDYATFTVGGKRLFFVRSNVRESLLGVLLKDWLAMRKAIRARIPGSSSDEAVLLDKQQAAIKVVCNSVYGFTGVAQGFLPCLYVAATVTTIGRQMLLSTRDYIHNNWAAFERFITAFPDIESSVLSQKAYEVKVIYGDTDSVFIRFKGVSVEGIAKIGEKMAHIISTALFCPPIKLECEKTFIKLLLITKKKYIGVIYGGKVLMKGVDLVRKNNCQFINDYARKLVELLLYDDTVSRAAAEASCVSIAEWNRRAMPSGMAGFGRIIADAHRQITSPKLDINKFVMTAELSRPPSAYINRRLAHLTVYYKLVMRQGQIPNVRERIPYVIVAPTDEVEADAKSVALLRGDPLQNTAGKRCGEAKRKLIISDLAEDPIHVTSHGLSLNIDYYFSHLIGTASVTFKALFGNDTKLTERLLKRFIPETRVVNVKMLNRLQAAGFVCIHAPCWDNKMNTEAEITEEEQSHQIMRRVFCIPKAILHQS
T1 sequence (P08546 whole entry): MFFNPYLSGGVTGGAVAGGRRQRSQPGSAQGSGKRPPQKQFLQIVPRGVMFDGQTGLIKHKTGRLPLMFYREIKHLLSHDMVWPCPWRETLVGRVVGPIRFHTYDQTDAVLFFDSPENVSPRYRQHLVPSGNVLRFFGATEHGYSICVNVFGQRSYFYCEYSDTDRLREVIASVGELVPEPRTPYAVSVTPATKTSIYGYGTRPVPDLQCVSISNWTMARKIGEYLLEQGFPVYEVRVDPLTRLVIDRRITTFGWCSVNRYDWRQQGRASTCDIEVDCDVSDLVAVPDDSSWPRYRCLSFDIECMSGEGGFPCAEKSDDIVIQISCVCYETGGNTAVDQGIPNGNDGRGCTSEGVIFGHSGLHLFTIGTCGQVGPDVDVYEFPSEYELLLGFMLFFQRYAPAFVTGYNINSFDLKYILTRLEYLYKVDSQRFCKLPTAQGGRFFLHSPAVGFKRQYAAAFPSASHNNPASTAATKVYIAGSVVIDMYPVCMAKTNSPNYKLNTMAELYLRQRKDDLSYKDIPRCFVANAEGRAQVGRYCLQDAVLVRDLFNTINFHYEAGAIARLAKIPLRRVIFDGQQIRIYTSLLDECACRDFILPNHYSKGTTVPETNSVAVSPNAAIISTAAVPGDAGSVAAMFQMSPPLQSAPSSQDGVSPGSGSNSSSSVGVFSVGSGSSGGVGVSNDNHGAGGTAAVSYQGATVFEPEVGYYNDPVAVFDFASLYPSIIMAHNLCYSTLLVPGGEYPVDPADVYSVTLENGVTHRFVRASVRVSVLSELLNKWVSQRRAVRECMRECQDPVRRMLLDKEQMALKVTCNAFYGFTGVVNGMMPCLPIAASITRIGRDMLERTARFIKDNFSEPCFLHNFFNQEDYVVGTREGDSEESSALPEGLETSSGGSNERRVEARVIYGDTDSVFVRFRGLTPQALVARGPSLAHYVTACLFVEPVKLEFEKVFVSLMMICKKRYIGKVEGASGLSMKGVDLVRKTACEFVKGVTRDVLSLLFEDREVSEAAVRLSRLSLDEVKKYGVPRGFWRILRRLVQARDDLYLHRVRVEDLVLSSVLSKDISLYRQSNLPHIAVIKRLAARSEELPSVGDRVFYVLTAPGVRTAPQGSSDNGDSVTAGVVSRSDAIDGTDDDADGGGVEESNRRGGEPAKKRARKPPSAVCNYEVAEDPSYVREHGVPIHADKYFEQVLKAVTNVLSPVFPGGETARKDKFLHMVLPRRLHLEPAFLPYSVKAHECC

SMILES	melting point [°C]	IC50 [1] [µM]	IC50 [2] [µM]	IC50 [3] [µM]
O=C(NCc1ccc(Cl)cc1)c1cn(-c2cccc(CO)c2)c2ccc(CN3CCOCC3)cc2c1=O [Example 17, N-(4-Chlorobenzyl)-1-(3-(hydroxymethyl)phenyl)-6-(4-morpholinylmethyl)-4-oxo-1,4-dihydro-3-quinolinecarboxamide]	119 to 121	0.44	0.74	0.31
O=C(NCc1ccc(Cl)cc1)c1cn(-c2cccc(O)c2)c2ccc(CN3CCOCC3)cc2c1=O [Example 13, N-(4-Chlorobenzyl)-I-(3-hydroxyphenyl)-6-(4-morpholinylmethyl)-4-oxo-1,4-dihydro-3-quinolinecarboxamide]	248 to 250	0.54	0.73	0.24
O=C(NCc1ccc(Cl)cc1)c1cn(-c2ccccc2)c2ccc(CN3CCOCC3)cc2c1=O [Example 1, N-(4-Chlorobenzyl)-6-(4-morpholinylmethyl)-4-oxo-1-phenyl-1,4-dihydro-3-quinolinecarboxamide]	168 to 169	0.55	0.81	0.4
O=C(NCc1ccc(Cl)cc1)c1cn(-c2cccc(CCCO)c2)c2ccc(CN3CCOCC3)cc2c1=O [Example 25, N-(4-Chlorobenzyl)-1-[3-(3-hydroxypropyl)phenyl]-6-(4-morpholinylmethyl)-4-oxo-1,4-dihydro-3-quinolinecarboxamide]	115 to 118	0.98	1.08	0.48
